Reference: ChEMBL document CHEMBL4610097, “Daphnane Diterpenoids from Daphne genkwa Inhibit PI3K/Akt/mTOR Signaling and Induce Cell Cycle Arrest and Apoptosis in Human Colon Cancer Cells” (J Nat Prod, 2020)
The source made the active and inactive calls. No cut-off for these calls is given here.

Tests used:
SW-620 [1] = assay: Induction of apoptosis in human SW620 cells assessed as late apoptotic cells at 0.74 uM after 24 hrs by annexin V/propidium iodide staining-based flow cytometric analysis (reference value: 2.40%); assay type: functional
SW-620 [2] = assay: Induction of apoptosis in human SW620 cells assessed as increase in cleaved PARP at 0.74 to 11.84 uM after 24 hrs by Western blot analysis; assay type: functional, cell-based
SW-620 [3] = assay: Induction of apoptosis in human SW620 cells assessed as necrotic cells at 1.48 uM after 24 hrs by annexin V/propidium iodide staining-based flow cytometric analysis (reference value: 0.30%); assay type: functional
[4] = Inhibition of PI3K/Akt/mTOR signalling pathway in human SW620 cells assessed as reduction in mTOR phosphorylation at 0.74 to 11.84 uM after 24 hrs by Western blot analysis; assay type: cell-based; conditions: SW-620
SW-620 [5] = assay: Induction of apoptosis in human SW620 cells assessed as necrotic cells at 5.92 uM after 24 hrs by annexin V/propidium iodide staining-based flow cytometric analysis (reference value: 0.30%); assay type: functional
SW-620 [6] = assay: Induction of apoptosis in human SW620 cells assessed as late apoptotic cells at 5.92 uM after 24 hrs by annexin V/propidium iodide staining-based flow cytometric analysis (reference value: 2.40%); assay type: functional
SW-620 [7] = assay: Induction of apoptosis in human SW620 cells assessed as appearance of apoptotic bodies at 11.84 uM after 24 hrs by acridine orange/propidium iodide staining based microscopic analysis; assay type: functional, cell-based
SW-620 [8] = assay: Induction of apoptosis in human SW620 cells assessed as necrotic cells at 11.84 uM after 24 hrs by annexin V/propidium iodide staining-based flow cytometric analysis (reference value: 0.30%); assay type: functional
SW-620 [9] = assay: Induction of apoptosis in human SW620 cells assessed as early apoptotic cells at 11.84 uM after 24 hrs by annexin V/propidium iodide staining-based flow cytometric analysis (reference value: 0.36%); assay type: functional
SW-620 [10] = assay: Induction of apoptosis in human SW620 cells assessed as early apoptotic cells at 2.96 uM after 24 hrs by annexin V/propidium iodide staining-based flow cytometric analysis (reference value: 0.36%); assay type: functional
SW-620 [11] = assay: Downregulation of PI3K p85 expression in human SW620 cells at 0.74 to 11.84 uM after 24 hrs by Western blot analysis; assay type: functional, cell-based
SW-620 [12] = assay: Induction of cell cycle arrest in human SW620 cells assessed as accumulation at S phase at 1.48 uM after 24 hrs by propidium iodide staining-based flow cytometric analysis (reference value: 23.83%); assay type: functional
SW-620 [13] = assay: Induction of apoptosis in human SW620 cells assessed as early apoptotic cells at 5.92 uM after 24 hrs by annexin V/propidium iodide staining-based flow cytometric analysis (reference value: 0.36%); assay type: functional
SW-620 [14] = assay: Induction of cell cycle arrest in human SW620 cells assessed as accumulation at G2/M phase at 1.48 uM after 24 hrs by propidium iodide staining-based flow cytometric analysis (reference value: 20.06%); assay type: functional
SW-620 [15] = assay: Induction of apoptosis in human SW620 cells assessed as increase in cleaved caspase-9 at 0.74 to 11.84 uM after 24 hrs by Western blot analysis; assay type: functional, cell-based
SW-620 [16] = assay: Induction of apoptosis in human SW620 cells assessed as late apoptotic cells at 2.96 uM after 24 hrs by annexin V/propidium iodide staining-based flow cytometric analysis (reference value: 2.40%); assay type: functional
SW-620 [17] = assay: Induction of apoptosis in human SW620 cells assessed as late apoptotic cells at 1.48 uM after 24 hrs by annexin V/propidium iodide staining-based flow cytometric analysis (reference value: 2.40%); assay type: functional
SW-620 [18] = assay: Induction of apoptosis in human SW620 cells assessed as necrotic cells at 2.96 uM after 24 hrs by annexin V/propidium iodide staining-based flow cytometric analysis (reference value: 0.30%); assay type: functional
SW-620 [19] = assay: Induction of cell cycle arrest in human SW620 cells assessed as accumulation at G2/M phase at 0.74 uM after 24 hrs by propidium iodide staining-based flow cytometric analysis (reference value: 20.06%); assay type: functional
SW-620 [20] = assay: Induction of apoptosis in human SW620 cells assessed as viable cells at 2.96 uM after 24 hrs by annexin V/propidium iodide staining-based flow cytometric analysis (reference value: 96.9%); assay type: functional; conditions: SW-620, 24 h, read-out: Activity
SW-620 [21] = assay: Induction of cell cycle arrest in human SW620 cells assessed as accumulation at G0/G1 phase at 0.74 uM after 24 hrs by propidium iodide staining-based flow cytometric analysis (reference value: 56.11%); assay type: functional
SW-620 [22] = assay: Induction of apoptosis in human SW620 cells assessed as viable cells at 1.48 uM after 24 hrs by annexin V/propidium iodide staining-based flow cytometric analysis (reference value: 96.9%); assay type: functional; conditions: SW-620, 24 h, read-out: Activity
SW-620 [23] = assay: Induction of morphological changes in human SW620 cells assessed as appearance of apoptotic bodies at 2.96 to 5.92 uM after 24 hrs by acridine orange/propidium iodide staining based microscopic analysis; assay type: functional, cell-based
SW-620 [24] = assay: Induction of apoptosis in human SW620 cells assessed as early apoptotic cells at 1.48 uM after 24 hrs by annexin V/propidium iodide staining-based flow cytometric analysis (reference value: 0.36%); assay type: functional
SW-620 [25] = assay: Induction of apoptosis in human SW620 cells assessed as viable cells at 0.74 uM after 24 hrs by annexin V/propidium iodide staining-based flow cytometric analysis (reference value: 96.9%); assay type: functional; conditions: SW-620, 24 h, read-out: Activity
[26] = Inhibition of PI3K/Akt/mTOR signalling pathway in human SW620 cells assessed as reduction in Akt phosphorylation at 0.74 to 11.84 uM after 24 hrs by Western blot analysis; assay type: cell-based; conditions: SW-620
SW-620 [27] = assay: Induction of cell cycle arrest in human SW620 cells assessed as accumulation at G2/M phase at 11.84 uM after 24 hrs by propidium iodide staining-based flow cytometric analysis (reference value: 20.06%); assay type: functional
SW-620 [28] = assay: Induction of apoptosis in human SW620 cells assessed as early apoptotic cells at 0.74 uM after 24 hrs by annexin V/propidium iodide staining-based flow cytometric analysis (reference value: 0.36%); assay type: functional
SW-620 [29] = assay: Induction of cell cycle arrest in human SW620 cells assessed as accumulation at G0/G1 phase at 5.92 uM after 24 hrs by propidium iodide staining-based flow cytometric analysis (reference value: 56.11%); assay type: functional
SW-620 [30] = assay: Induction of cell cycle arrest in human SW620 cells assessed as accumulation at S phase at 11.84 uM after 24 hrs by propidium iodide staining-based flow cytometric analysis (reference value: 23.83%); assay type: functional
SW-620 [31] = assay: Induction of cell cycle arrest in human SW620 cells assessed as accumulation at G2/M phase at 2.96 uM after 24 hrs by propidium iodide staining-based flow cytometric analysis (reference value: 20.06%); assay type: functional
SW-620 [32] = assay: Induction of cell cycle arrest in human SW620 cells assessed as accumulation at S phase at 0.74 uM after 24 hrs by propidium iodide staining-based flow cytometric analysis (reference value: 23.83%); assay type: functional
SW-620 [33] = assay: Induction of cell cycle arrest in human SW620 cells assessed as accumulation at G0/G1 phase at 1.48 uM after 24 hrs by propidium iodide staining-based flow cytometric analysis (reference value: 56.11%); assay type: functional

C=C(C)[C@@]12O[C@@]3(/C=C/C=C/CCCCC)O[C@@H]1[C@@H]1[C@H](O)[C@@](O)(CO)[C@@H](O)[C@]4(O)C(=O)C(C)=C[C@H]4[C@@]1(O3)[C@H](C)[C@H]2OC(=O)c1ccccc1
Activity (SW-620 [1]): 15.9%
Activity (SW-620 [2]): Active
Activity (SW-620 [3]): 0.43%
inhibition [4]: Active
Activity (SW-620 [5]): 0.25%
Activity (SW-620 [6]): 58.5%
Activity (SW-620 [7]): Active
Activity (SW-620 [8]): 1.64%
Activity (SW-620 [9]): 10.7%
Activity (SW-620 [10]): 6.18%
Activity (SW-620 [11]): Active
Activity (SW-620 [12]): 14.19%
Activity (SW-620 [13]): 4.67%
Activity (SW-620 [14]): 7.08%
Activity (SW-620 [15]): Active
Activity (SW-620 [16]): 49.4%
Activity (SW-620 [17]): 48.5%
Activity (SW-620 [18]): 0.33%
Activity (SW-620 [19]): 8.83%
viability at 2.96 µM (SW-620 [20]): 44.1%
Activity (SW-620 [21]): 76.93%
viability at 1.48 µM (SW-620 [22]): 45.4%
Activity (SW-620 [23]): Active
Activity (SW-620 [24]): 5.64%
viability at 0.74 µM (SW-620 [25]): 80.8%
inhibition [26]: Active
Activity (SW-620 [27]): 2.43%
Activity (SW-620 [28]): 3.24%
Activity (SW-620 [29]): 84.75%
Activity (SW-620 [30]): 9.49%
Activity (SW-620 [31]): 5.17%
Activity (SW-620 [32]): 14.24%
Activity (SW-620 [33]): 78.73%
